Test results taken from patent publication US20240189307A1, “METHODS OF STABILIZING THE NEURONAL PROTEOME AGAINST COLLAPSE AND PROTECTING VASCULAR CELLS” (ALBERT EINSTEIN COLLEGE OF MEDICINE, priority 2021, published 2024).

Experiments:
KFERQ-Dendra mice = test: CMA activation in brain of KFERQ-Dendra mice; conditions: administered in vivo
Source text: To test this possibility, we measured CMA in a mouse model of tau-mediated proteotoxicity expressing mutant human tau (hTau^P301L) under the Thy 1.2 promotor (line pR5). We crossed hTau^P301L mice with a transgenic mouse model that expresses systemically a KFERQ-tagged fluorescent protein Dendra2 (KFERQ-Dendra), recently developed by our group. This reporter protein, when targeted for degradation via CMA, highlights lysosomes as fluorescent puncta, that can be counted as read out of CMA activity.

NIH3T3 cells = test: Macroautophagic flux (LC3-II flux with/without lysosomal protease inhibitors); assay type: cell-based, mouse; conditions: 20 μM, 16 h
Procedure: FIG. 10. Characterization of the brain permeable chemical activator of CMA and effect in a mouse model of Frontotemporal dementia-related proteotoxicity. (A) Chemical structure of AR7 and CA77.1. (B) Quantification of the effect of adding increasing concentrations of AR7 and CA77.1 to NIH3T3 cells stably expressing the KFERQ-PS-Dendra reporter. CMA activity was quantified after 16 h treatment as the average of fluorescent puncta per cell. (n>800 cells per condition). (C) Autophagic flux in NIH3T3 cells incubated at 37° C. for 16 h with 20 µM AR7 or CA77.1 or without additions (none). Where indicated lysosomal protease inhibitors (PI) were added to the cells 6 h before lysis. Left: representative immunoblot. […] Right: quantification of LC3-II flux as the difference in LC3-II levels in cells treated with PI relative to untreated. […] (D) Quantification of the effect of adding increasing concentrations of AR7 and CA77.1 to NIH3T3 cells stably expressing the KFERQ-PS-Dendra reporter. CMA activity was quantified after 12 h or 24 h treatment as the average of fluorescent puncta per cell. […] Representative immunoblot of 4-5 mice per genotype and treatment (L) and densitometric quantification of AT8 as monomer [Kruskal-Wallis statistic=20.48, p<0.0001] […] (O, P) Quantification of the number of Iba1-positive microglial cells per mm^2 in the hippocampus [Kruskal-Wallis statistic=10.55, p=0.0051] […]

With `CC(=O)Nc1ccc(-c2cnc3cc(Cl)ccc3n2)cc1` [CA77.1] the “activation of CMA in brain in vivo” value (KFERQ-Dendra mice) was “activation of CMA in brain of KFERQ-Dendra mice” and the “effect on macroautophagy (LC3-II flux)” value (NIH3T3 cells) was “without affecting macroautophagy”.
